Columns and labels:
[1] = target: T1, ASK1 T838 auto phosphorylation (Homo sapiens, UniProt Q99683); experiment: ASK1 (AUTO PHOS T838) assay, MSD format, in HEK-293T cells transfected with ASK1-V5; assay type: cell-based; details: ASK1 T838 auto phosphorylation in HEK-293T cells, 1 hr compound incubation; class symbols
T1 sequence (Q99683 1-1374): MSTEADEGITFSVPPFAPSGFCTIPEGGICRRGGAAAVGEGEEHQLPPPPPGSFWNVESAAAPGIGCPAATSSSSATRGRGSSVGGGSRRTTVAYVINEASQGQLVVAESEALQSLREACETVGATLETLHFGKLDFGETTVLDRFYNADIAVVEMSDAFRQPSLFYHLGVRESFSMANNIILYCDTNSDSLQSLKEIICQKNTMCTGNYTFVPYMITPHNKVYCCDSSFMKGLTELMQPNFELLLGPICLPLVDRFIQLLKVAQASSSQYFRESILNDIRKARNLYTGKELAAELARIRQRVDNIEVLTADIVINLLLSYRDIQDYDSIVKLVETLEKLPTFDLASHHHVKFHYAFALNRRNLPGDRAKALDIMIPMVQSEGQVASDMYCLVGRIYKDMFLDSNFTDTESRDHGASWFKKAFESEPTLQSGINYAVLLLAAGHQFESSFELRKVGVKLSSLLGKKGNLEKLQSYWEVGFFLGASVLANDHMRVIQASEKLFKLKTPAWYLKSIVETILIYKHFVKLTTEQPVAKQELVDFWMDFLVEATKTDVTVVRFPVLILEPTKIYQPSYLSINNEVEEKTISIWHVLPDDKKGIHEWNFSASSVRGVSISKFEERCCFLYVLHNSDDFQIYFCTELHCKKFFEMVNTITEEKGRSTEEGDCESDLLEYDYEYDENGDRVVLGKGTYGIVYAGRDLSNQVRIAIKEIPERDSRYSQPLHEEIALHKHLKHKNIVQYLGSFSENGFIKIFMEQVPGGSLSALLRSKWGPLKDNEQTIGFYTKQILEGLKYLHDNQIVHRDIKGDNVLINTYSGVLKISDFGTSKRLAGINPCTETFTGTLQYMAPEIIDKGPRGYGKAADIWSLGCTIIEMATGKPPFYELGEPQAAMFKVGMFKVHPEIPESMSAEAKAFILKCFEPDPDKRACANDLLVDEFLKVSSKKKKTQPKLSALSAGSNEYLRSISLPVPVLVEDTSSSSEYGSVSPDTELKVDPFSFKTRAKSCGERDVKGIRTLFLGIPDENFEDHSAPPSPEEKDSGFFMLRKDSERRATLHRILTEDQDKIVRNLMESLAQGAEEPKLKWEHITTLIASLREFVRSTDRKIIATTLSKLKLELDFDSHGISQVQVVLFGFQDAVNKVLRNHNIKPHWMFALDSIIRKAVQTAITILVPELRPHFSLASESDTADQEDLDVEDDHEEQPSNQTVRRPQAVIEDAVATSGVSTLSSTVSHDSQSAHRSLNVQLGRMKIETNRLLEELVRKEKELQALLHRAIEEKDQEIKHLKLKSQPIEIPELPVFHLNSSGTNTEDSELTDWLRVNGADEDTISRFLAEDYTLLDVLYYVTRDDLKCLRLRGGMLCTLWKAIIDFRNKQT
Protocol: Example 112: Brief Description of ASK1(AUTO PHOS T838) Assay ASK1 T838 auto phosphorylation was measured in HEK-293T cells using MSD assay format. HEK 293T cells were seeded in 15 cm plates at a density of 18 million cells and 20 mL DMEM with 10% FBS, Pen/Strep media. The plates were incubated at 37° C. overnight. Media on plates was changed to OPTI-MEM, serum free media and cells were transfected with 9 μg of ASK1-V5 tagged full length plasmid using Lipofectamine 2000 (Invitrogen) and the plates were incubated at 37° C. overnight. Cells were trypsinized, counted on Nexcellometer and plated into 96 well tissue culture plates with 100,000 cells/well and 200 μL media. Cells were incubated for 4 hr at 37° C. then ASK1 compounds were added using a HP 300e. Compounds were tested at 20 μM with 3 fold, 10 point dilution points then incubated for 1 hr at 37° C. A lysis buffer (Cell Signaling) was prepared with protease and phosphatase inhibitor and maintained at 4° C. until use. Media from cells was discarded and 120 μL of cold lysis buffer was added to the cells, the plate was shaken 4° C. for 1 hr. Lysate was mixed using Apricot liquid handler; aspirating up and down 16 times at high speed using 50 μL volume. […] Plates were then incubated on a plate shaker overnight at 4° C. Plates were washed 3× with MSD wash buffer and 50 μL of rabbit anti-pASK1 T838 antibody was added to the wells and incubated for 2 hr at room temperature on a plate shaker. Plates were then washed and 50 μL of goat anti-rabbit sulfa-tag (1:500 dilution) was added to wells, and incubated for 1 hr at room temperature on a plate shaker. […] Plates were immediately read on a MSD Instrument Reader where chemoluminescence signal was measured. Data was analyzed using Graph Pad or Genedata, the data was normalized and plotted, % activity versus log of compound concentration. The IC50 values were obtained from a 4 parameter fit. The compounds described herein were tested for in the above cell-based assay.

ASK1/MAP3K5 = target: T2, ASK1/MAP3K5 (Homo sapiens, UniProt Q99683); experiment: ASK1/MAP3K5 kinase assay by Reaction Biology Corp. (headed ASK1 TR-FRET Assay); assay type: biochemical; details: 20 μM myelin basic protein, 10 μM ATP
T2 sequence (Q99683 1-1374): T1 sequence (Q99683 1-1374)
Protocol: Example 111: Brief Description of ASK1 TR-FRET Assay The protein kinase inhibitory activity of the compounds described herein were tested using the ASK1/MAP3K5 assay by Reaction Biology Corp. (Malvern, PA). The assay procedure follows (and is also available on the Reaction Biology Corp. website). Base Reaction Buffer: 20 mM Hepes (pH 7.5), 10 mM MgCl2, 1 mM EGTA, 0.02% Brij35, 0.02 mg/mL BSA, 0.1 mM Na3VO4, 2 mM DTT, 1% DMSO; Substrate: 20 μM of myelin basic protein (MBP) and 10 μM ATP; Protein kinase: ASK1/MAP3K5. Reaction Procedure: • 1. Prepare indicated substrate in freshly prepared Base Reaction Buffer. • 2. Deliver any required cofactors to the substrate solution. • 3. Deliver indicated kinase into the substrate solution and gently mix. • 4. Deliver compounds in DMSO into the kinase reaction mixture by Acoustic; technology (Echo550; nanoliter range), incubate for 20 minutes at room temperature. • 5. Deliver ^33P-ATP (specific activity 10 μCi/μL) into the reaction mixture to initiate the reaction. • 6. Incubate kinase reaction for 2 hours at room temperature. • 7. Reactions are spotted onto P81 ion exchange paper. • 8. Detect kinase activity by filter-binding method.

`COc1nn(CC(C)C)cc1C(=O)Nc1cccc(-c2nncn2C(C)C(F)(F)F)n1` (stereo not shown) [Example 43, 1-Isobutyl-3-methoxy-N-(6-(4-(1,1,1-trifluoropropan-2-yl)-4H-1,2,4-triazol-3-yl)pyridin-2-yl)-1H-pyrazole-4-carboxamide] showed an IC50 [1] of no more than 1000 nM and an IC50 (ASK1/MAP3K5; class symbols) of no more than 100 nM.

Work on `COc1nn(Cc2ccccn2)cc1C(=O)Nc1cccc(-c2nncn2C(C)C)n1` [Example 44, N-(6-(4-Isopropyl-4H-1,2,4-triazol-3-yl)pyridin-2-yl)-3-methoxy-1-(pyridin-2-ylmethyl)-1H-pyrazole-4-carboxamide] yielded an IC50 [1] of no more than 1000 nM and an IC50 (ASK1/MAP3K5; class symbols) of no more than 100 nM.

`COc1nn(CCN(C)C)cc1C(=O)Nc1cccc(-c2nncn2C(C)C)n1` [Example 45, 1-(2-(Dimethylamino)ethyl)-N-(6-(4-isopropyl-4H-1,2,4-triazol-3-yl)pyridin-2-yl)-3-methoxy-1H-pyrazole-4-carboxamide] was tested, and the IC50 [1] was no more than 1000 nM and the IC50 (ASK1/MAP3K5; class symbols) was no more than 100 nM.

`COc1nn(CCN2CCOCC2)cc1C(=O)Nc1cccc(-c2nncn2C(C)C)n1` [Example 46, N-(6-(4-Isopropyl-4H-1,2,4-triazol-3-yl)pyridin-2-yl)-3-methoxy-1-(2-morpholinoethyl)-1H-pyrazole-4-carboxamide] gave an IC50 [1] of no more than 1000 nM and an IC50 (ASK1/MAP3K5; class symbols) of no more than 100 nM.

`COc1nn(CC2CC2)cc1C(=O)Nc1cccc(-c2nncn2[C@@H](C)C(F)(F)F)n1` [Example 48, (S)-1-(Cyclopropylmethyl)-3-methoxy-N-(6-(4-(1,1,1-trifluoropropan-2-yl)-4H-1,2,4-triazol-3-yl)pyridin-2-yl)-1H-pyrazole-4-carboxamide] showed an IC50 [1] of no more than 1000 nM and an IC50 (ASK1/MAP3K5; class symbols) of no more than 100 nM.

`COc1nn(C)cc1C(=O)Nc1cccc(-c2nncn2C2(C)COC2)n1` [Example 49, 3-Methoxy-1-methyl-N-(6-(4-(3-methyloxetan-3-yl)-4H-1,2,4-triazol-3-yl)pyridin-2-yl)-1H-pyrazole-4-carboxamide] showed an IC50 [1] greater than 10000 nM and an IC50 (ASK1/MAP3K5; class given in words) of no less than 10000 nM.

In the case of `CC(C)n1cnnc1-c1cccc(NC(=O)c2cn(CC3CC3)nc2C(F)F)n1` [Example 50, 1-(Cyclopropylmethyl)-3-(difluoromethyl)-N-(6-(4-isopropyl-4H-1,2,4-triazol-3-yl)pyridin-2-yl)-1H-pyrazole-4-carboxamide], the IC50 [1] is reported as no more than 1000 nM and the IC50 (ASK1/MAP3K5; class symbols) is reported as no more than 100 nM.

In the case of `COCCn1cc(C(=O)Nc2cccc(-c3nncn3[C@@H](C)C(F)(F)F)n2)c(C(F)F)n1` [Example 51, (S)-3-(Difluoromethyl)-1-(2-methoxyethyl)-N-(6-(4-(1,1,1-trifluoropropan-2-yl)-4H-1,2,4-triazol-3-yl)pyridin-2-yl)-1H-pyrazole-4-carboxamide], the IC50 [1] is reported as no more than 1000 nM and the IC50 (ASK1/MAP3K5; class symbols) is reported as no more than 100 nM.

Work on `COCCn1cc(C(=O)Nc2cccc(-c3nncn3[C@@H](C)C(F)(F)F)n2)c(OC)n1` [Example 52, (S)-3-Methoxy-1-(2-methoxyethyl)-N-(6-(4-(1,1,1-trifluoropropan-2-yl)-4H-1,2,4-triazol-3-yl)pyridin-2-yl)-1H-pyrazole-4-carboxamide] yielded an IC50 [1] of no more than 1000 nM and an IC50 (ASK1/MAP3K5; class symbols) of no more than 100 nM.

Work on `COCCn1cc(C(=O)Nc2cccc(-c3nncn3[C@H](C)C(F)(F)F)n2)c(OC)n1` [Example 53, (R)-3-Methoxy-1-(2-methoxyethyl)-N-(6-(4-(1,1,1-trifluoropropan-2-yl)-4H-1,2,4-triazol-3-yl)pyridin-2-yl)-1H-pyrazole-4-carboxamide] yielded an IC50 [1] of no more than 1000 nM and an IC50 (ASK1/MAP3K5; class symbols) of 100 to 1000 nM.

`COCCn1cc(C(=O)Nc2cccc(-c3nncn3C3CC3)n2)c(OC)n1` [Example 54, N-(6-(4-Cyclopropyl-4H-1,2,4-triazol-3-yl)pyridin-2-yl)-3-methoxy-1-(2-methoxyethyl)-1H-pyrazole-4-carboxamide] gave an IC50 [1] of no more than 1000 nM and an IC50 (ASK1/MAP3K5; class symbols) of no more than 100 nM.

For `C=CCn1cc(C(=O)Nc2cccc(-c3nncn3C(C)C)n2)c(OC)n1` [Example 55, 1-Allyl-N-(6-(4-isopropyl-4H-1,2,4-triazol-3-yl)pyridin-2-yl)-3-methoxy-1H-pyrazole-4-carboxamide], the IC50 [1] was no more than 1000 nM and the IC50 (ASK1/MAP3K5; class symbols) was no more than 100 nM.

`C=CCn1cc(C(=O)Nc2cccc(-c3nncn3[C@@H](C)C(F)(F)F)n2)c(OC)n1` [Example 57, (S)-1-Allyl-3-methoxy-N-(6-(4-(1,1,1-trifluoropropan-2-yl)-4H-1,2,4-triazol-3-yl)pyridin-2-yl)-1H-pyrazole-4-carboxamide] showed an IC50 [1] of no more than 1000 nM and an IC50 (ASK1/MAP3K5; class symbols) of no more than 100 nM.

Work on `CCCn1cc(C(=O)Nc2cccc(-c3nncn3C(C)C(F)(F)F)n2)c(OC)n1` (stereo not shown) [Example 59, 3-Methoxy-1-propyl-N-(6-(4-(1,1,1-trifluoropropan-2-yl)-4H-1,2,4-triazol-3-yl)pyridin-2-yl)-1H-pyrazole-4-carboxamide] yielded an IC50 [1] of no more than 1000 nM and an IC50 (ASK1/MAP3K5; class symbols) of no more than 100 nM.

Work on `COc1nn(-c2cc(C#N)ccn2)cc1C(=O)Nc1cccc(-c2nncn2C(C)C)n1` [Example 65, 1-(4-Cyanopyridin-2-yl)-N-(6-(4-isopropyl-4H-1,2,4-triazol-3-yl)pyridin-2-yl)-3-methoxy-1H-pyrazole-4-carboxamide] yielded an IC50 [1] of no more than 1000 nM and an IC50 (ASK1/MAP3K5; class symbols) of no more than 100 nM.

Work on `COc1nn(-c2cncc(C)c2)cc1C(=O)Nc1cccc(-c2nncn2C(C)C)n1` [Example 67, N-(6-(4-Isopropyl-4H-1,2,4-triazol-3-yl)pyridin-2-yl)-3-methoxy-1-(5-methylpyridin-3-yl)-1H-pyrazole-4-carboxamide] yielded an IC50 [1] of no more than 1000 nM and an IC50 (ASK1/MAP3K5; class symbols) of no more than 100 nM.

For `COc1nn(-c2cncc(C#N)c2)cc1C(=O)Nc1cccc(-c2nncn2C(C)C)n1` [Example 69, 1-(5-Cyanopyridin-3-yl)-N-(6-(4-isopropyl-4H-1,2,4-triazol-3-yl)pyridin-2-yl)-3-methoxy-1H-pyrazole-4-carboxamide], the IC50 [1] was no more than 1000 nM and the IC50 (ASK1/MAP3K5; class symbols) was no more than 100 nM.

— patent publication US11999715B2, “ASK1 inhibiting agents” (BIOGEN MA INC., priority 2018, dated 2024)
